Source: article PMC10244669, “Virtual screening–based discovery of AI-2 quorum sensing inhibitors that interact with an allosteric hydrophobic site of LsrK and their functional evaluation” (Frontiers in Chemistry, 2023)
Entries after “also recorded” stand apart in the source; their conditions may differ. Like-named read-outs stand apart in the source and are kept apart here.

Legend:
LsrK [1] = conditions: Figure 2, 2019, cited from earlier work
LsrK [2] = molecular target: T1, LsrK (Salmonella typhimurium, UniProt Q8ZKQ6); test: LsrK inhibition assay (Kinase-Glo luminescence); type: biochemical; conditions: for inhibition at 200 µM: Table 1, hits at 200 μM with 100 μM ATP
Procedure: (§1) To express LsrK with a 6 × His-tag at the C-terminus, the LsrK encoding gene of Salmonella typhimurium was amplified using primers carrying restriction endonuclease sites BamHI and XhoI. The amplified product was cloned into the expression vector pET-28a with a C-terminal 6 × His-tag and transfected into E. coli BL21 (DE3).
This assay was performed as previously described ([Gatta et al., 2019]), and the conditions were optimized. […] 74 purchased compounds were dissolved in dimethyl sulfoxide (20% v/v DMSO in reaction buffer) at a concentration of 2 mM. Briefly, 10 μL DPD, 10 μL LsrK, and 5 μL compound were added to a 96-well plate, and 25 μL ATP or 25 μL reaction buffer was added after 30 min incubation. The plate was incubated for 10 min at 37°C, then 50 μL of kit reagent was added, and the plate was incubated at 37°C for 15 min. The luminescence signal was measured using an Enspire 2300 microplate reader (PerkinElmer). Dose-response tests were carried out to verify the activity of hits chosen by primary screening. (200 μM–6.25 µM) ([Medarametla et al., 2018]). The inhibition percentage of each tested compound was determined as previously described and IC50 was calculated using four logistic parameters.

[3] = system: AI-2-mediated QS (lsr promoter luminescence, reporter strain WHQ02); test: Cell-based AI-2-mediated QS interference assay; parameters: species or system E. coli; conditions: for IC50: Escherichia coli, cell-based QS interference assay, WHQ02, mean ± SD, n = 3
Description: All chemicals were purchased from Sigma-Aldrich (St. Louis, MO, United States) unless otherwise stated. DPD was purchased from the […] ZZBIO Co., LTD. (Shanghai, China). The Kinase-Glo Max Luminescent Kinase Assay Kit was purchased from Promega (Madison, WI, United States). NTA sensor chips were purchased from GE Healthcare (Chicago, IL, United States). All compounds used as potential inhibitors of LsrK were purchased from Topscience Biotechnology Co. Ltd. (Shanghai, China). The QS reporter strain WHQ02 (E. coli BL21 ΔTolC pWHQ01) was donated by Huiqi Wen (Institute of Microbiology and Epidemiology, Academy of Military Sciences, Beijing, China). The plasmid pWHQ01 was constructed by cloning the lsr promoter and the luxCDABE luminescent gene. BamHI and XhoI were purchased from New England Biolabs (Ipswich, MA, United States). pET-28a was purchased from Novagen (Madison, WI, United States). Escherichia coli BL21 (DE3) cells were purchased from TransGen Biotech Co., LTD. (Beijing, China). A Ni-NTA column was purchased from Sangon Biotech (Shanghai, China). Sodium dodecyl sulfate-polyacrylamide gel electrophoresis (SDS-PAGE) and the Bradford Protein Assay Kit were purchased from Thermo Fisher Scientific (Waltham, MA, United States).
(§2) WHQ02 cultured overnight were diluted 1:100 in fresh LB supplemented with 100 μg/mL ampicillin and grown at 30°C and until the logarithmic phase (OD600 = 0.4–0.6). The bacterial culture was centrifuged at 4,000 × g for 5 min, and the pellet was resuspended in fresh LB medium to prepare a suspension of 2 McFarland standard and added to the 96-well plate. In the experimental group, 74 compounds (final concentrations ranging from 100 to 3.125 μM) were added to reach a total volume of 100 µL. In addition, 100 µL LB medium with an equal volume of DMSO (negative control) or 100 µL LB supplemented with 2% glucose and the same volume of DMSO (positive control) were added. Bacteria was cultured at 37°C with shaking for 3 h. The […] of WHQ02 is directly regulated by the lsr promoter, reflecting the strength of QS. The luminescence and OD600 were measured using an Enspire 2300 microplate reader (Perkin Elmer). To further study the effect of compounds on bacterial growth, overnight cultured WHQ02 was diluted 1:1,000 with LB medium and added to 96 well plate. Then, the compounds were added to a 96-well plate (final concentration: 100 µM) and diluted in a gradient. The same volume of DMSO was added to the control group. The plates were incubated at 37°C for 18 h. OD600 values were recorded using an Enspire 2300 microplate reader. The experiment was performed in triplicate.

[4] = system: WHQ02 (E. coli BL21 ΔTolC pWHQ01); test: Growth inhibition of the reporter strain (OD600); type: cell-based; conditions: 100 to 3.13 μM
Procedure: as §2
The 12 hits showing >60% LsrK inhibition were tested for QS inhibition using cell-based AI-2-mediated QS interference assay, as previously described [Baba et al., 2006]). To ensure that lower luminescence was the result of QS inhibition not the chemical toxicity or antibacterial activity, strain growth inhibition was assessed concurrently. […] Therefore, a parallel experiment to test the MIC of compounds at a low bacterial density was conducted, indirectly reflecting the potential growth inhibition to avoid false positives.

LsrK [5] = molecular target: T1, LsrK; test: SPR assay; type: binding
Description: as §1
His-tagged LsrK was immobilized in the NTA sensor chip (GE Healthcare) in Biacore 8 K using a running buffer consisting of 1 × PBS-T and 5% v/v DMSO. Serially diluted small molecules (concentration range: 50 to 1.56 µM) were injected. Intermediate concentration (12.5 µM) was set as a repeat, and 1 × PBS-T with 5% v/v DMSO was set as the control. The association time was set to 120 s; the dissociation time was set to 130 s; and the flow rate was set to 30 μL/min. The resulting data were fitted to the affinity binding model using Biacore Evaluation Software (GE Healthcare).

AI-2 QS = conditions: Figure 2; ref Gatta et al., 2019; cited from earlier work
[6] = 100 μM ATP, mean ± SD, n = 3, read-out: IC50B

T1 sequence (Q8ZKQ6 whole entry): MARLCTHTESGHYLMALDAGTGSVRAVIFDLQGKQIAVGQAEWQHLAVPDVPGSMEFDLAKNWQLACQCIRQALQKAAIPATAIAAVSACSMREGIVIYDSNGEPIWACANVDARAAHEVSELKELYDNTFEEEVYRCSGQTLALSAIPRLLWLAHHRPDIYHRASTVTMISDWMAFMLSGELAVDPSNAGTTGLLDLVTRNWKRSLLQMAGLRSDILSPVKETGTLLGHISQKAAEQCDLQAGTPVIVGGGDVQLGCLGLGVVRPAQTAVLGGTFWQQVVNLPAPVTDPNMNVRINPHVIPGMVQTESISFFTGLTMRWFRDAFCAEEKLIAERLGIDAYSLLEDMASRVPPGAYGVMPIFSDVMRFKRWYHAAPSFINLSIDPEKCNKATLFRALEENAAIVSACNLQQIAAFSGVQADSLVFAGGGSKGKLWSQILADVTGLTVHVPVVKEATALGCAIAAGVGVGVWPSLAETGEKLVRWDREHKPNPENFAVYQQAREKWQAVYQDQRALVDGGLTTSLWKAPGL

Row | Compound | IC50 (LsrK [2]; [6]) [µM] | inhibition at 200 µM (LsrK [2]; mean ± SD, n = 3) [%] | IC50 [3] [µM] | further results
1 | Cn1nc(-c2ccccc2)cc1C1COC2(CCCCC2)O1 (stereo not shown) [compound 6] |  |  |  | IC50 (LsrK [1]; ref Stotani et al.): 119 µM
2 | O=C1NC(=S)S/C1=C\c1c[nH]c2ccc(OCc3ccccc3)cc12 [3681–1274] | 133 ± 8.85 | 66.2 ± 3.54 | 42.2 ± 2.15 | AI-2 QS inhibitory activity (in words) ([3]; 100 to 3.13 μM): significant QS inhibitory activities
3 | NC(=O)c1cc(Cc2ccccc2)sc1NC(=O)C1C2CCC(C2)C1C(=O)O (stereo not shown) [Y205-6768] | 16.8 ± 0.76 | 101 ± 8.39 | 11.3 ± 0.7 | maximum growth inhibition [4]: < 40%; IC50 (LsrK [2]; 50 μM ATP, mean ± SD, n = 3, read-out: IC50A): 8.73 ± 0.5 µM; IC50 (LsrK [2]; 150 μM ATP, mean ± SD, n = 3, read-out: IC50C): 26 ± 1.32 µM; type of LsrK inhibition (LsrK [2]; from IC50 values at 50, 100 and 150 μM ATP): ATP-competitive inhibitors; Kd (LsrK [5]; His-tagged LsrK on NTA chip, 50 to 1.56 µM, affinity binding model): 8.49 µM; LsrK specific binding (in words) (LsrK [5]; SPR): specifically bound to LsrK; also recorded: exhibited LsrK specific binding; AI-2 QS inhibitory activity (in words) ([3]; 100 to 3.13 μM): significant QS inhibitory activities; maximum AI-2 QS inhibition ([3]; 100 to 3.13 μM): > 80%
4 | O=C1C=CC(=C(c2ccc(O)cc2)c2ccc(O)cc2)C=C1 [compound 5, rosolic acid] |  |  |  | IC50 (AI-2 QS): 11 µM; IC50 (LsrK [1]; ref Gatta et al.): 1 µM
5 | COC(=O)CSC1=NC(=O)C[C@H](c2ccc(Cl)cc2)[C@H]1C#N [2188–1861] | 129 ± 6.85 | 92.1 ± 6.68 | 38.4 ± 3.35 | AI-2 QS inhibitory activity (in words) ([3]; 100 to 3.13 μM): significant QS inhibitory activities
6 | O=C(O)[C@@H]1[C@@H](C(=O)Nc2cc(C(F)(F)F)ccc2Cl)[C@H]2C=C[C@@H]1O2 [Y204-6349] | 75.1 ± 1.19 | 87.4 ± 2.6 | > 100 | 
7 | C[C@]1(OC(=O)/C=C/c2ccccc2)C[C@@H](O)[C@]2(O)C=CO[C@@H](O[C@@H]3O[C@H](CO)[C@@H](O)[C@H](O)[C@H]3O)[C@@H]21 [compound 4, harpagoside] |  |  |  | IC50 (AI-2 QS): 14 µM; IC50 (LsrK [1]; ref Gatta et al.): 10 µM
8 | Cc1c(CC(=O)O)c(=O)oc2cc(OCc3ccc(C(=O)O)o3)ccc12 [Y040-9027] | 90 ± 5.18 | 94.1 ± 6.72 | > 100 | 
9 | CC(C)c1ccc2nc(Cc3cccc(C(N)=O)c3)[nH]c(=O)c2c1 [Z951211480] |  |  |  | Inhibition (%) (LsrK [2]; Supplementary Table 1, 200 uM compound, 100 μM ATP, mean ± SD, n = 3, * = colour of the compound interferes with luminescence): 0%
10 | Cc1ccc(C(=O)O)cc1NC(=O)c1nn2cccnc2c1Cl [Y502-2013] | 140 ± 5.54 | 69.1 ± 8.64 | > 100 | 
11 | O=C(O)C[C@H]1S/C(=N\N=C2\C(=O)Nc3ccccc32)N(c2ccc(O)cc2)C1=O [4515–0182] | 52.1 ± 2.68 | 83.7 ± 9.63 | > 100 | 
